Holding throughout (format): functional, organism-based
The subject of assay [1] is Pseudomonas aeruginosa. Put plainly: Antimicrobial activity against non-hypermutable Pseudomonas aeruginosa isolated from patients with chronic respiratory infection by Etest method.
The test system of assay [2] is Pseudomonas aeruginosa. The experiment in a line: Antimicrobial activity against Pseudomonas aeruginosa PAO1 by Etest method.
For assay [3], the system named is Pseudomonas aeruginosa. Put plainly: Antimicrobial activity against non-hypermutable Pseudomonas aeruginosa isolated from intensive care unit patients with chronic respiratory infection by Etest method.
The subject of assay [4] is Pseudomonas aeruginosa. The experiment in a line: Antimicrobial activity against hypermutable Pseudomonas aeruginosa isolated from patients with chronic respiratory infection by Etest method.
In assay [5] the test system is Pseudomonas aeruginosa. Put plainly: Antimicrobial activity against Pseudomonas aeruginosa ATCC 27853 by Etest method.
The subject of assay [6] is Pseudomonas aeruginosa. The experiment in a line: Antimicrobial activity against mutS-deficient Pseudomonas aeruginosa PAO1 by Etest method.

A word on the MIC: it is the lowest concentration that inhibits growth of the organism. A lower MIC goes with inhibition by little substance.

COLISTIN: the MIC in the assay with Pseudomonas aeruginosa [1] was 0.92 µg/mL; in the assay with Pseudomonas aeruginosa [2] it was 2 µg/mL; in the assay on Pseudomonas aeruginosa [3] it was 2 µg/mL; with Pseudomonas aeruginosa [4], 0.48 µg/mL; with Pseudomonas aeruginosa [5] it was 1 µg/mL; in the assay on Pseudomonas aeruginosa [6] it was 2 µg/mL.

For the origin of these results see ChEMBL document CHEMBL1151432, “Increased susceptibility to colistin in hypermutable Pseudomonas aeruginosa strains from chronic respiratory infections” (Antimicrob Agents Chemother, 2007).
